Laboratory results as given in US6518012B1, “Method for regulating the expression of MHC antigens and CD40 by inhibitors of histone deacetylation” (Health Research, Inc., priority 1999, dated 2003).

Experiments:
[1] = tested on: MHC class II protein on the cell surface; assay: Cell surface MHC class II protein by flow cytometry on SK-N-MC; type: cell-based, human; conditions: for expression of MHC class II protein on the cell surface: flow cytometry, 50 nM TSA for 48 hours, IFNγ 100 U/ml same time
MHC class I = assay: Cell surface MHC class I by flow cytometry on Colon 26 and J558; type: cell-based, mouse
Method: To determine the effect of TSA on cell surface protein expression, the J558 cell line was subjected to flow cytometric analyses as follows. Flow cytometric analyses were conducted by standard methods using cells fixed with 1.0% paraformaldehyde and analyzed on the FACScan (Becton Dickinson). Cell cycle analyses were carried out by flow cytometry with PI staining of genomic DNA. Cells were fixed and permeablized in methanol, treated with RNaseA and analyzed for DNA content by determination of FL3-area on the FACScan. The FL3-area data were analyzed with the ModFit software for determination of the percent cells in each phase of the cell cycle. In some cases, fluorescein isothiocyanate (FITC)-conjugated antibody staining was conducted prior to PI treatment and surface staining was analyzed as a function of cell cycle phase. Apoptosis was analyzed by staining with annexin-V directly conjugated with either FITC or RPE and by sub-G0 analysis of DNA staining. Expression levels without treatment are shown as shaded peaks, IFNγ treated cell expression is plotted by a thin line while the level of expression on TSA treated cells is represented by a heavy line. Isotype controls were analyzed and, in each case, fell on or below the levels shown for control cells. […] Since all cells were positive for MHC class I expression, the number under the histogram represents -fold change of expression calculated from the mean channel-shift after treatment relative to untreated cells. […] Of the 13 markers analyzed on J558 cells, only class I, II and CD40 were enhanced, while levels of several non-expressed antigens were not elicited (including CD25, B7 integrin, CD40L, H2K^k and IA^k) while other markers, which were expressed, were not altered (including CD44, CD54, CD80, CD86 and CD119) by TSA treatment. […] The separation of control and IFNγ curves in the CD40, J558 experiment depicted in FIG. 8 represents a mean channel fluorescence difference of only 1.3 and was not seen on independent replicates of the experiment. […]

| Molecule | cells positive for class II expression ([1]; TSA concentration used in FIG. 8 (50 nM for 48 hours)) [%] | expression of MHC class II protein on the cell surface [1] | MHC class I expression on cell surface (MHC class I; Colon 26 and J558, flow cytometry) | class I expression as a function of cell cycle phase (MHC class I; J558, double staining with PI and antibody to class I) | MHC class I expression, response to IFNγ (MHC class I; J558, IFNγ 100 U/ml) |
| --- | --- | --- | --- | --- | --- |
| CC(/C=C/C(=O)NO)=C\[C@@H](C)C(=O)c1ccc(N(C)C)cc1 [TSA, Trichostatin A] | 29 | significantly induced | enhanced | induced expression throughout the cell cycle |  |
| IFNγ: gamma-interferon, cytokine used as comparator at 100 U/ml |  | did not induce |  |  | unresponsive |
